Measurements published in publication PMC13379236 (Cell reports, 2026).
“Also recorded” adds a separate entry of the source.

Experiments:
ZYG11B [1] = type: cell-based, human
NLRP1 inflammasome = type: cell-based, human
ZYG11B [2] = settings: cited from earlier work
innate immune response = settings: cited from earlier work

ORF10: SARS-CoV-2 protein ORF10, overexpressed
ORF10 binding to ZYG11B E644K (ZYG11B [1]): decrease the binding
ORF10 binding to ZYG11B K515E (ZYG11B [1]): substantially enhance binding
ORF10 binding to ZYG11B R466A (ZYG11B [1]): minimal effect; also recorded: did not strongly affect ORF10 binding
effect of ORF10 on inflammasome activation with NLRP1 E133K (NLRP1 inflammasome): no decrease in inflammasome activation
inhibition of HRV 3Cpro-mediated activation of wild-type NLRP1 (NLRP1 inflammasome): could inhibit HRV 3Cpro-mediated activation of NLRP1
interaction with ZYG11B (ZYG11B [2]): interacts with ZYG11B
effect on innate immune response (innate immune response): can suppress the innate immune response
